In BindingDB's records for doi:10.3109/14756360903179443 (Institute of Chemical Technology, 2010) one finds IC50 data, which are given here for 20 molecules.

Test in all cases: Biological Assay
In assay [1] the target is T1, Dihydrofolate reductase (Pneumocystis carinii, UniProt P16184).
T1 sequence (P16184 whole entry): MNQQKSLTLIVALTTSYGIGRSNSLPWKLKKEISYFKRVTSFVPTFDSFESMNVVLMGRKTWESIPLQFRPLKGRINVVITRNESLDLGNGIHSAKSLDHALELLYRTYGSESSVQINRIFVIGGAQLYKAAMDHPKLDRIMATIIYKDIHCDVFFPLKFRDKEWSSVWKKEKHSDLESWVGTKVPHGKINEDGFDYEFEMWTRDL
The protocol: (§1) The synthesized compounds were evaluated for their ability to inhibit DHFR from pc, tg, ma, and rl using a continuous spectrophotometric assay measuring oxidation at […] of NADPH at 37°C under conditions of saturating substrate and cofactor as previously described [Broughton et al., Antimicrob. Agents Chemother., 35:1348-55; Chio et al., Antimicrob. Agents Chemother., 37:1914-23].

The target in assay [2] is T2, Bifunctional dihydrofolate reductase-thymidylate synthase (Toxoplasma gondii, UniProt Q07422).
T2 sequence (Q07422 whole entry): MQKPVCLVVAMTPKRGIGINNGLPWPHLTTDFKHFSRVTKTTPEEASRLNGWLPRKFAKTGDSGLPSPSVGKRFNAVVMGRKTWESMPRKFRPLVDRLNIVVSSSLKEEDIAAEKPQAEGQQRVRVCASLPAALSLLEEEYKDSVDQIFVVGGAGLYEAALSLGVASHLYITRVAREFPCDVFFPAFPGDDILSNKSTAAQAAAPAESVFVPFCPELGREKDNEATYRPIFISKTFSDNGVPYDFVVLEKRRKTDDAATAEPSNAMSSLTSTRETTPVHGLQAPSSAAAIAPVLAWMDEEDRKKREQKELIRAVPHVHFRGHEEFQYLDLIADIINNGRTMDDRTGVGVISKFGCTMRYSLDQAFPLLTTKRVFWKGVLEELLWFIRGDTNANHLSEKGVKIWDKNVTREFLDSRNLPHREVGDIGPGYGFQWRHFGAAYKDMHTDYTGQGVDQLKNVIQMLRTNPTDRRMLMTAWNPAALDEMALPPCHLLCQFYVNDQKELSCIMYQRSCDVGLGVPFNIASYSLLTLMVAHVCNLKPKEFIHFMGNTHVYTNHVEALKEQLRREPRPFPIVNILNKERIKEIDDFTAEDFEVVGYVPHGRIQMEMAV
The protocol:
as §1

In assay [3] the target is T3, Dihydrofolate reductase (Rattus norvegicus, UniProt Q920D2).
T3 sequence (Q920D2 whole entry): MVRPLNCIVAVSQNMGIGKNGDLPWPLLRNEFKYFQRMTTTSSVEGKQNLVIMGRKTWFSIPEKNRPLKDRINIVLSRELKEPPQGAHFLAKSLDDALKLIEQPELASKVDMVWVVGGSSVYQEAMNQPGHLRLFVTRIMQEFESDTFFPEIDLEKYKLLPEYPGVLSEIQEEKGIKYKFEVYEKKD
As to the method: as §1

Assay [4] concerns the target T4, Dihydrofolate reductase (Mycobacterium avium, UniProt O30463).
T4 sequence (O30463 whole entry): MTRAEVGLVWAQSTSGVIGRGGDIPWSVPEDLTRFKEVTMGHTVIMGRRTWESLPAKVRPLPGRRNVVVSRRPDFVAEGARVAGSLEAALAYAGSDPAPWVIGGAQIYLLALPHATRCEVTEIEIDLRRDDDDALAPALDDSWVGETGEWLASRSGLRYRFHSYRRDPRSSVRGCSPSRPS
The protocol:
as §1

As a reminder, the IC50 is the concentration at which inhibition is half-maximal.

Structures can show the parent of a compound that is named as a salt.

On to `CC1(C)N=C(N)N=C(N)N1c1ccc(OCc2ccccc2)cc1`, for which the IC50 turned out to be 5.4 µM against Dihydrofolate reductase [1], 0.032 µM in assay [2], 0.12 µM on Dihydrofolate reductase [3] and 14.4 µM against Dihydrofolate reductase [4].

On to `CC1(C)N=C(N)N=C(N)N1c1ccc(OCc2ccc(Cl)cc2Cl)cc1` [1-(4-(2,4-Dichlorobenzyloxy)phenyl)-6,6-dimethyl-1-,6-dihydro-1,3,5-triazine-2,4-diamine hydrochloride (B2-04)], for which the IC50 against Dihydrofolate reductase [1] is 1.08 µM; in assay [2], 0.029 µM; against Dihydrofolate reductase [3], 0.018 µM; against Dihydrofolate reductase [4] it was 11.2 µM.

Take `CC1(C)N=C(N)N=C(N)N1c1ccc(OCc2ccccc2Cl)cc1` [1-(4-(2-Chlorobenzyloxy)phenyl)-6,6-dimethyl-1,6-dihydro-1,3,5-triazine-2,4-diamine hydrochloride (B2-03)]: the IC50 was determined as 2.53 µM against Dihydrofolate reductase [1], 0.04 µM in assay [2], 0.073 µM at Dihydrofolate reductase [3] and 10.3 µM at Dihydrofolate reductase [4].

For `CC1(C)N=C(N)N=C(N)N1c1ccc(OCc2cccc(Cl)c2)cc1` [1-(4-(3-Chlorobenzyloxy)phenyl)-6,6-dimethyl-1,6-dihydro-1,3,5-triazine-2,4-diamine hydrochloride (B2-02)], the IC50 against Dihydrofolate reductase [1] was 1.11 µM; in assay [2] it was 0.02 µM; against Dihydrofolate reductase [3] it was 0.034 µM; on Dihydrofolate reductase [4], 4.08 µM.

Turning to `CC1(C)N=C(N)N=C(N)N1c1ccc(OCc2ccc(Br)cc2)cc1` [1-(4-(4-Bromobenzyloxy)phenyl)-6,6-dimethyl-1,6-dihydro-1,3,5-triazine-2,4-diamine hydrochloride (B2-05)], the IC50 is 0.829 µM against Dihydrofolate reductase [1], 0.033 µM in assay [2], 0.033 µM against Dihydrofolate reductase [3] and 7.32 µM against Dihydrofolate reductase [4].

For `COc1ccc(COc2ccc(N3C(N)=NC(N)=NC3(C)C)cc2)cc1` [1-(4-(4-Methoxybenzyloxy)phenyl)-6,6-dimethyl-1,6-dihydro-1,3,5-triazine-2,4-diamine hydrochloride (B2-06)], the IC50 worked out at 1.69 µM against Dihydrofolate reductase [1], 0.019 µM in assay [2], 0.048 µM at Dihydrofolate reductase [3] and 3.38 µM at Dihydrofolate reductase [4].

As for `CC1(C)N=C(N)N=C(N)N1c1ccc(OCc2ccc(-c3ccccc3)cc2)cc1` [1-(4-(Biphenyl-4-ylmethoxy)phenyl)-6,6-dimethyl-1,6-dihydro-1,3,5-triazine-2,4-diamine hydrochloride (B2-07)], the IC50 against Dihydrofolate reductase [1] stood at 0.403 µM; in assay [2], 0.012 µM; at Dihydrofolate reductase [3], 0.026 µM; against Dihydrofolate reductase [4], 10.2 µM.

For the molecule `CC1(C)N=C(N)N=C(N)N1c1ccc(OCCN2C(=O)c3ccccc3C2=O)cc1` [2-(2-(4-(4,6-Diamino-2,2-dimethyl-1,3,5-triazin-1(2H)-yl)phenoxy)ethyl)isoindoline-1,3-dione hydrochloride (A2-01)], the IC50 against Dihydrofolate reductase [1] was found to be 15.4 µM; in assay [2], 0.424 µM; against Dihydrofolate reductase [3] it was 1.16 µM; against Dihydrofolate reductase [4], 44.6 µM.

Regarding `CC1(C)N=C(N)N=C(N)N1c1ccc(OCC(O)CN2C(=O)c3ccccc3C2=O)cc1` (stereo not given) [2-(3-(4-(4,6-Diamino-2,2-dimethyl-1,3,5-triazin-1(2H)-yl)phenoxy)-2-hydroxypropyl)isoindoline-1,3-dione hydrochloride (A2-04)], the 50% inhibitory concentration (IC50) against Dihydrofolate reductase [1] stood at 34.6 µM; in assay [2], 0.523 µM; on Dihydrofolate reductase [3], 1.94 µM; against Dihydrofolate reductase [4] it was 154 µM.

Take `CC1(C)N=C(N)N=C(N)N1c1ccc(OCCCN2C(=O)c3ccccc3C2=O)cc1` [2-(3-(4-(4,6-Diamino-2,2-dimethyl-1,3,5-triazin-1(2H)-yl)phenoxy)propyl)isoindoline-1,3-dione hydrochloride (A2-02)]: the 50% inhibitory concentration (IC50) against Dihydrofolate reductase [1] amounted to 6.49 µM; in assay [2], 0.169 µM; against Dihydrofolate reductase [3] it was 0.556 µM; against Dihydrofolate reductase [4] it was 35.2 µM.

Turning to `CC1(C)N=C(N)N=C(N)N1c1ccc(OCCCCN2C(=O)c3ccccc3C2=O)cc1` [2-(4-(4-(4,6-Diamino-2,2-dimethyl-1,3,5-triazin-1(2H)-yl)phenoxy)butyl)isoindoline-1,3-dione (A2-03)], the IC50 against Dihydrofolate reductase [1] was 2.61 µM; in assay [2] it was 0.079 µM; on Dihydrofolate reductase [3], 0.033 µM; at Dihydrofolate reductase [4] it was 8.9 µM.

In the case of `N=C(N)NC(=N)Nc1ccc(OCc2ccccc2)cc1` [N-[4-(Benzyloxy)phenyl]imidodicarbonimidic diamide hydrochloride (B1-01)], the IC50 (against Dihydrofolate reductase [1]; in assay [2]; against Dihydrofolate reductase [3]; on Dihydrofolate reductase [4]) was 132 µM throughout.

Consider `NC(N)=N/C(N)=N/c1ccc(OCc2ccc(-c3ccccc3)cc2)cc1` [N-[4-(Biphenyl-4-ylmethoxy)phenyl]imidodicarbonimidic diamide hydrochloride (B1-07)], for which the IC50 worked out at 104 µM at Dihydrofolate reductase [1], 111 µM in assay [2], 67 µM against Dihydrofolate reductase [3] and 104 µM against Dihydrofolate reductase [4].

For the molecule `N=C(N)NC(=N)Nc1ccc(OCCN2C(=O)c3ccccc3C2=O)cc1` [N-{4-[2-(1,3-Dioxo-1,3-dihydro-2H-isoindol-2-yl)ethoxy]phenyl}imidodicarbonimidic diamide hydrochloride (A1-01)], the concentration for half-maximal inhibition (IC50) on Dihydrofolate reductase [1] was 51.4 µM; in assay [2], 40.3 µM; at Dihydrofolate reductase [3], 67.7 µM; against Dihydrofolate reductase [4], 51.4 µM.

With `N=C(N)NC(=N)Nc1ccc(OCCCN2C(=O)c3ccccc3C2=O)cc1` [N-{4-[3-(1,3-Dioxo-1,3-dihydro-2H-isoindol-2-yl)propoxy]phenyl}imidodicarbonimidic diamide hydrochloride (A1-02)], the half-inhibitory concentration (IC50) against Dihydrofolate reductase [1] stood at 106 µM; in assay [2], 135 µM; against Dihydrofolate reductase [3], 106 µM; at Dihydrofolate reductase [4], 106 µM.

As to `NC(N)=N/C(N)=N/c1ccc(OCc2ccc(Cl)cc2Cl)cc1` [N-{4-[(2,4-Dichlorobenzyl)oxy]phenyl}imidodicarbonimidic diamide hydrochloride (B1-04)], the IC50 on Dihydrofolate reductase [1] is 123 µM; in assay [2] it was 111 µM; against Dihydrofolate reductase [3] it was 27.9 µM; on Dihydrofolate reductase [4], 111 µM.

For the molecule `N=C(N)NC(=N)Nc1ccc(OCc2ccccc2Cl)cc1` [N-{4-[(2-Chlorobenzyl)oxy]phenyl}imidodicarbonimidic diamide hydrochloride (B1-03)], the IC50 came to 293 µM on Dihydrofolate reductase [1], 9.95 µM in assay [2], 20.8 µM on Dihydrofolate reductase [3] and 152 µM against Dihydrofolate reductase [4].

For `NC(N)=N/C(N)=N/c1ccc(OCc2cccc(Cl)c2)cc1` [N-{4-[(3-Chlorobenzyl)oxy]phenyl}imidodicarbonimidic diamide hydrochloride (B1-02)], the IC50 against Dihydrofolate reductase [1] is 104 µM; in assay [2] it was 58.5 µM; at Dihydrofolate reductase [3], 68.7 µM; on Dihydrofolate reductase [4], 63.8 µM.

`COc1cccc(COc2ccc(NC(=N)NC(=N)N)cc2)c1` [N-{4-[(3-Methoxybenzyl)oxy]phenyl}imidodicarbonimidic diamide hydrochloride (B1-06)]: the half-inhibitory concentration (IC50) against Dihydrofolate reductase [1] was 15.5 µM; in assay [2] it was 8.4 µM; on Dihydrofolate reductase [3], 14.7 µM; against Dihydrofolate reductase [4], 15.5 µM.

Take `N=C(N)NC(=N)Nc1ccc(OCc2ccc(Br)cc2)cc1` [N-{4-[(4-Bromobenzyl)oxy]phenyl}imidodicarbonimidic diamide hydrochloride (B1-05)]: the half-inhibitory concentration (IC50) at Dihydrofolate reductase [1] was 164 µM; in assay [2], 21.4 µM; against Dihydrofolate reductase [3], 74.9 µM; against Dihydrofolate reductase [4] it was 127 µM.
